Assay results taken from the NIST ThermoML archive (doi:10.1016/j.jct.2015.04.029).
± gives the expanded uncertainty stated by the source.

What was measured:
[1] = refractive index (Na D-line) (dimensionless); details: 101.33 kPa, Liquid, Standard Abbe refractometry
[2] = for mass density: 101.33 kPa, Vibrating tube method; for mass density / surface tension liquid-gas: Liquid; for surface tension liquid-gas: Maximal bubble pressure; for Glass transition temperature: DSC

| SMILES | refractive index ([1]; 298.15 K) | refractive index ([1]; 303.15 K) | refractive index ([1]; 308.15 K) | refractive index ([1]; 313.15 K) | refractive index ([1]; 318.15 K) | refractive index ([1]; 323.15 K) | refractive index ([1]; 328.15 K) | refractive index ([1]; 333.15 K) | refractive index ([1]; 338.15 K) | mass density ([2]; 298.15 K) [kg/m3] | surface tension liquid-gas ([2]; 298.15 K) [mN/m] | mass density ([2]; 303.15 K) [kg/m3] | surface tension liquid-gas ([2]; 303.15 K) [mN/m] | mass density ([2]; 308.15 K) [kg/m3] | surface tension liquid-gas ([2]; 308.15 K) [mN/m] | mass density ([2]; 313.15 K) [kg/m3] | surface tension liquid-gas ([2]; 313.15 K) [mN/m] | mass density ([2]; 318.15 K) [kg/m3] | surface tension liquid-gas ([2]; 318.15 K) [mN/m] | mass density ([2]; 323.15 K) [kg/m3] | further results |
| --- | --- | --- | --- | --- | --- | --- | --- | --- | --- | --- | --- | --- | --- | --- | --- | --- | --- | --- | --- | --- | --- |
| CCC[n+]1ccn(C)c1.N[C@@H](CO)C(=O)[O-] [1-methyl-3-propylimidazolium L-serinate] | 1.5179 ± 0.0005 | 1.5165 ± 0.0005 | 1.5153 ± 0.0005 | 1.5141 ± 0.0005 | 1.5131 ± 0.0005 | 1.5123 ± 0.0005 | 1.5112 ± 0.0005 | 1.51 ± 0.0005 | 1.5086 ± 0.0005 | 1181.51 ± 1.1 | 46.8 ± 0.5 | 1178.34 ± 1.1 | 46.6 ± 0.4 | 1175.19 ± 1.1 | 46.4 ± 0.4 | 1172.03 ± 1.1 | 46.1 ± 0.4 | 1168.88 ± 1.1 | 45.8 ± 0.4 | 1165.67 ± 1.1 | surface tension liquid-gas ([2]; 323.15 K): 45.6 ± 0.4 mN/m; mass density ([2]; 328.15 K): 1162.6 ± 1.1 kg/m3; surface tension liquid-gas ([2]; 328.15 K): 45.4 ± 0.4 mN/m; mass density ([2]; 333.15 K): 1159.49 ± 1.1 kg/m3; surface tension liquid-gas ([2]; 333.15 K): 45.1 ± 0.4 mN/m; mass density ([2]; 338.15 K): 1156.42 ± 1.1 kg/m3; surface tension liquid-gas ([2]; 338.15 K): 44.9 ± 0.4 mN/m; Glass transition temperature [2]: -54.5 ± 1 °C |
| CCCCn1cc[n+](C)c1.N[C@@H](CO)C(=O)[O-] [1-butyl-3-methylimidazolium L-serinate] | 1.5143 ± 0.0005 | 1.5135 ± 0.0005 | 1.5126 ± 0.0005 | 1.5114 ± 0.0005 | 1.5106 ± 0.0005 | 1.5096 ± 0.0005 | 1.5091 ± 0.0005 | 1.5077 ± 0.0005 | 1.5069 ± 0.0005 | 1156.04 ± 1.1 | 45.4 ± 0.4 | 1152.82 ± 1.1 | 45.2 ± 0.4 | 1149.61 ± 1.1 | 45 ± 0.4 | 1146.45 ± 1.1 | 44.7 ± 0.4 | 1143.31 ± 1.1 | 44.4 ± 0.4 | 1140.08 ± 1.1 | surface tension liquid-gas ([2]; 323.15 K): 44.3 ± 0.4 mN/m; mass density ([2]; 328.15 K): 1136.91 ± 1.1 kg/m3; surface tension liquid-gas ([2]; 328.15 K): 44 ± 0.4 mN/m; mass density ([2]; 333.15 K): 1133.81 ± 1.1 kg/m3; surface tension liquid-gas ([2]; 333.15 K): 43.8 ± 0.4 mN/m; mass density ([2]; 338.15 K): 1130.64 ± 1.1 kg/m3; surface tension liquid-gas ([2]; 338.15 K): 43.5 ± 0.4 mN/m; Glass transition temperature [2]: -47.20 ± 1 °C |
